ChEMBL document CHEMBL5247610, “Discovery of 5-((4-(pyridin-3-yl)pyrimidin-2-yl)amino)-1H-indole-2-carboxamide derivatives as novel anti-cancer agents targeting Nur77” (Eur J Med Chem, 2022)
Active and inactive are the calls of the source. The rule behind the calls is not given here.

Legend:
[1] = tested on: HeLa; experiment: Antiproliferative activity against human HeLa cells assessed as cell viability at 10 uM incubated for 48 hrs by MTT assay; format: functional; settings: read-out: Activity
[2] = tested on: MDA-MB-231; experiment: Antiproliferative activity against human MDA-MB-231 cells assessed as reduction in cell viability incubated for 48 hrs by MTT assay; format: functional, cell-based; settings: MDA-MB-231, 48 h
[3] = tested on: A549; experiment: Antiproliferative activity against human A549 cells assessed as reduction in cell viability incubated for 48 hrs by MTT assay; format: functional, cell-based; settings: A549, 48 h
[4] = Cytotoxicity against human L02 cells assessed as reduction in cell viability incubated for 48 hrs by MTT assay; format: toxicity, cell-based
[5] = Selectivity index, ratio of IC50 for human L02 cells to IC50 for human HepG2 cells by MTT assay; format: toxicity; settings: L02 cells versus HepG2 cells, read-out: Ratio IC50
[6] = Selectivity index, ratio of IC50 for human L02 cells to IC50 for human MDA-MB-231 cells by MTT assay; format: toxicity; settings: L02 cells versus MDA-MB-231 cells, read-out: Ratio IC50
[7] = target: T1, Nuclear receptor subfamily 4immunitygroup A member 1 (Homo sapiens, UniProt P22736); experiment: Binding affinity to Nur77 ligand binding domain (unknown origin) by surface plasmon resonance analysis
[8] = target: T1, Nuclear receptor subfamily 4immunitygroup A member 1; experiment: Binding affinity to pBind-Nur77-LBD (unknown origin) transfected in HEK293T cells co-transfected with pG5-Luc assessed as inhibition of Nur77 transcriptional activity by measuring inhibition of Nur77-driven luciferase activity at 5 uM incubated for 12 hrs by luciferase reporter gene assay; format: cell-based; settings: filed as modulator
[9] = target: T2, Peroxisome proliferator-activated receptor gamma (Homo sapiens) (UniProt P37231); experiment: Binding affinity to pBind-PPARgamma-LBD (unknown origin) transfected in HEK293T cells co-transfected with pG5-Luc at 5 uM incubated for 12 hrs by luciferase reporter gene assay; format: cell-based
T2 sequence (whole entry): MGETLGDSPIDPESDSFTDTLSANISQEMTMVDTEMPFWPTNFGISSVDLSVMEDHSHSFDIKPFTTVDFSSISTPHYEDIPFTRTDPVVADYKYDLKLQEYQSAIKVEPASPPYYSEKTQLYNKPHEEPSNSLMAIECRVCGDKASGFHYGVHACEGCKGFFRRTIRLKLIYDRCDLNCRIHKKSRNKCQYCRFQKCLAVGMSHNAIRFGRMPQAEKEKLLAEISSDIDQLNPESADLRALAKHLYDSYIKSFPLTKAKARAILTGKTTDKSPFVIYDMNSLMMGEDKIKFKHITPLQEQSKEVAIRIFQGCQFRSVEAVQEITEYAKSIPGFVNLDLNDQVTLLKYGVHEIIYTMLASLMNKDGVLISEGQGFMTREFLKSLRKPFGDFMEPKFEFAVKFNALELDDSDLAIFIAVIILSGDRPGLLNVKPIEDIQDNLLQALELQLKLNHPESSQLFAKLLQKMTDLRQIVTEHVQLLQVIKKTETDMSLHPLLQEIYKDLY

[10] = tested on: HepG2; experiment: Induction of apoptosis in human HepG2 cells transfected with Nur77 siRNA assessed as induction of PARP cleavage at 10 to 15 uM incubated for 12 hrs by western blot analysis; format: functional, cell-based; settings: dose 10-15 µM
[11] = tested on: HepG2; experiment: Induction of apoptosis in Nur77 overexpressing human HepG2 cells transfected with Myc-Nur77 assessed as induction of PARP cleavage at 5 uM incubated for 12 hrs by western blot analysis; format: functional, cell-based
[12] = tested on: HepG2; experiment: Induction of apoptosis in human HepG2 cells assessed as early apoptotic cells at 10 uM incubated for 12 hrs by AnnexinV-FITC/PI staining based flow cytometry (reference value: 0.83%); format: functional
[13] = tested on: HepG2; experiment: Induction of apoptosis in human HepG2 cells assessed as late apoptotic cells at 10 uM incubated for 12 hrs by AnnexinV-FITC/PI staining based flow cytometry (reference value: 1.91%); format: functional
[14] = tested on: HepG2; experiment: Induction of apoptosis in human HepG2 cells assessed as necrotic cells at 10 uM incubated for 12 hrs by AnnexinV-FITC/PI staining based flow cytometry (reference value: 0.92%); format: functional
[15] = tested on: HepG2; experiment: Induction of apoptosis in human HepG2 cells transfected with Nur77 siRNA assessed as viable cells at 10 uM incubated for 12 hrs by AnnexinV-FITC/PI staining based flow cytometry (reference value: 96.34%); format: functional; settings: read-out: Activity
[16] = tested on: HepG2; experiment: Induction of apoptosis in human HepG2 cells transfected with Nur77 siRNA assessed as early apoptotic cells at 10 uM incubated for 12 hrs by AnnexinV-FITC/PI staining based flow cytometry (reference value: 1.37%); format: functional
[17] = tested on: HepG2; experiment: Induction of apoptosis in human HepG2 cells transfected with Nur77 siRNA assessed as late apoptotic cells at 10 uM incubated for 12 hrs by AnnexinV-FITC/PI staining based flow cytometry (reference value: 1.98%); format: functional
[18] = tested on: HepG2; experiment: Induction of apoptosis in human HepG2 cells assessed as mitochondrial membrane potential loss by measuring proportion of cells with depolarized MMP at 10 uM incubated for 12 hrs by JC-1 staining based flow cytometry (reference value: 5.81%); format: functional
[19] = target: T1, Nuclear receptor subfamily 4immunitygroup A member 1; experiment: Modulation of GFP-Nur77 (unknown origin) transfected in human HepG2 cells assessed as induction of Nur77 translocation from nucleus to mitochondria at 10 uM incubated for 3 hrs by confocal microscopy; settings: filed as modulator
[20] = target: T1, Nuclear receptor subfamily 4immunitygroup A member 1; experiment: Modulation of Myc-Nur77-LBD (unknown origin) transfected in human HepG2 cells assessed as induction of Nur77 translocation from nucleus to mitochondria at 10 uM incubated for 3 hrs by confocal microscopy; settings: filed as modulator
[21] = tested on: HepG2; experiment: Antitumor activity against human HepG2 cells xenografted in BALB/c nude mouse assessed as inhibition of tumor growth at 50 mg/kg, ip administered once every day for 14 days; format: functional; settings: HepG2, 336 h, time 14 day, read-out: TGI
[22] = Toxicity in BALB/c nude mouse xenografted with human HepG2 cells assessed as body weight loss at 50 mg/kg, ip administered once every day for 14 days; format: organism-based; settings: in vivo, 336 h, time 14 day
[23] = tested on: HepG2; experiment: Antitumor activity against human HepG2 cells xenografted in BALB/c nude mouse assessed as induction of nuclear shrinkage in tumor tissues at 50 mg/kg, ip administered once every day for 14 days by H and E staining based analysis; format: functional, organism-based; settings: time 14.0 day
[24] = tested on: HepG2; experiment: Antitumor activity against human HepG2 cells xenografted in BALB/c nude mouse assessed as decrease in Ki67 expression in tumor tissues at 50 mg/kg, ip administered once every day for 14 days by immunohistochemistry analysis; format: functional, organism-based; settings: time 14.0 day
[25] = Toxicity in BALB/c nude mouse xenografted with human HepG2 cells assessed as effect on heart damage at 50 mg/kg ip administered once every day for 14 days by H and E staining based analysis; format: organism-based; settings: in vivo, 336 h, time 14 day
[26] = Toxicity in BALB/c nude mouse xenografted with human HepG2 cells assessed as effect on spleen damage at 50 mg/kg ip administered once every day for 14 days by H and E staining based analysis; format: organism-based; settings: in vivo, 336 h, time 14 day
[27] = Toxicity in BALB/c nude mouse xenografted with human HepG2 cells assessed as effect on kidney damage at 50 mg/kg ip administered once every day for 14 days by H and E staining based analysis; format: organism-based; settings: in vivo, 336 h, time 14 day

T1 sequence (P22736 whole entry, the tested form may be a part): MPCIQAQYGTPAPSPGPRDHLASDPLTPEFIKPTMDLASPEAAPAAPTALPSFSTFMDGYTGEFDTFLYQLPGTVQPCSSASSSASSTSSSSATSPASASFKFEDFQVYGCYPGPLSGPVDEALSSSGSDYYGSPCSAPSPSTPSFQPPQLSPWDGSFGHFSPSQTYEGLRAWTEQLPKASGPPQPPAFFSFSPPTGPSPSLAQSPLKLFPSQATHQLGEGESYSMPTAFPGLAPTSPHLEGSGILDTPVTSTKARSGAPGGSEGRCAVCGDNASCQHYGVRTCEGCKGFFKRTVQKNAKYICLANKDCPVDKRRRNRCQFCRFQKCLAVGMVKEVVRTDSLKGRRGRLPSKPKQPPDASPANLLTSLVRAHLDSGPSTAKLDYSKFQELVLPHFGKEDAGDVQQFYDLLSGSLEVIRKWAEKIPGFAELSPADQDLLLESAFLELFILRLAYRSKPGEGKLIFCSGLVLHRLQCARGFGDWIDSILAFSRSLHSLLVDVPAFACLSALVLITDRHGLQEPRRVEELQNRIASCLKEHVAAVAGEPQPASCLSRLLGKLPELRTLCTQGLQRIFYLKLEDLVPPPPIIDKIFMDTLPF

IC50 [2]: 3.24 µM | IC50 [3]: 6.63 µM | Kd [7]: 0.354 µM | Activity ([7]; filed as modulator): Dose-Dependent Effect | Activity [8]: Active | Activity [9]: inactive | Activity [19]: Active | Activity [20]: Active
SMILES: CN(C)CCCNC(=O)c1cc2cc(Nc3nccc(-c4cccnc4)n3)ccc2[nH]1
viability at 10 µM [1]: 19.4% | IC50 at 48 h [4]: 11.2 µM | selectivity ratio [5]: 1.24 | selectivity ratio [6]: 3.47 | Activity [10]: inactive | Activity [11]: Active | Activity [12]: 16.5% | Activity [13]: 8.01% | Activity [14]: 2.83% | viability at 10 µM [15]: 95.1% | Activity [16]: 1.92% | Activity [17]: 2.28% | Activity [18]: 21.34% | inhibition in vivo at 50 mg/kg [21]: 71.8% | Activity [22]: Non-Toxic | Activity [23]: Active | Activity [24]: Active | Activity [25]: Non-Toxic | Activity [26]: Non-Toxic | Activity [27]: Non-Toxic
